Assay results: the Kinase Knowledgebase extract (Sharma et al. 2016)

What was measured:
CDK2 [1] = target: CDK2 (UniProt P24941); assay: Enzyme Assay
CDK2 [2] = target: CDK2 (UniProt P24941); assay: Enzyme Assay; settings: for inhibition: concentration not given here
MAPK14 (human) = MAPK14 (human) (UniProt Q16539); assay: Inhibition of MAPK14 Kinase Activity; settings: for inhibition: concentration not given here
ROCK2 (rat) = ROCK2 (rat) (UniProt Q62868); assay: Inhibition of ROCK2 Kinase Activity; settings: concentration not given here
Chain of ROCK2 (rat) (Q62868 whole entry, looked up): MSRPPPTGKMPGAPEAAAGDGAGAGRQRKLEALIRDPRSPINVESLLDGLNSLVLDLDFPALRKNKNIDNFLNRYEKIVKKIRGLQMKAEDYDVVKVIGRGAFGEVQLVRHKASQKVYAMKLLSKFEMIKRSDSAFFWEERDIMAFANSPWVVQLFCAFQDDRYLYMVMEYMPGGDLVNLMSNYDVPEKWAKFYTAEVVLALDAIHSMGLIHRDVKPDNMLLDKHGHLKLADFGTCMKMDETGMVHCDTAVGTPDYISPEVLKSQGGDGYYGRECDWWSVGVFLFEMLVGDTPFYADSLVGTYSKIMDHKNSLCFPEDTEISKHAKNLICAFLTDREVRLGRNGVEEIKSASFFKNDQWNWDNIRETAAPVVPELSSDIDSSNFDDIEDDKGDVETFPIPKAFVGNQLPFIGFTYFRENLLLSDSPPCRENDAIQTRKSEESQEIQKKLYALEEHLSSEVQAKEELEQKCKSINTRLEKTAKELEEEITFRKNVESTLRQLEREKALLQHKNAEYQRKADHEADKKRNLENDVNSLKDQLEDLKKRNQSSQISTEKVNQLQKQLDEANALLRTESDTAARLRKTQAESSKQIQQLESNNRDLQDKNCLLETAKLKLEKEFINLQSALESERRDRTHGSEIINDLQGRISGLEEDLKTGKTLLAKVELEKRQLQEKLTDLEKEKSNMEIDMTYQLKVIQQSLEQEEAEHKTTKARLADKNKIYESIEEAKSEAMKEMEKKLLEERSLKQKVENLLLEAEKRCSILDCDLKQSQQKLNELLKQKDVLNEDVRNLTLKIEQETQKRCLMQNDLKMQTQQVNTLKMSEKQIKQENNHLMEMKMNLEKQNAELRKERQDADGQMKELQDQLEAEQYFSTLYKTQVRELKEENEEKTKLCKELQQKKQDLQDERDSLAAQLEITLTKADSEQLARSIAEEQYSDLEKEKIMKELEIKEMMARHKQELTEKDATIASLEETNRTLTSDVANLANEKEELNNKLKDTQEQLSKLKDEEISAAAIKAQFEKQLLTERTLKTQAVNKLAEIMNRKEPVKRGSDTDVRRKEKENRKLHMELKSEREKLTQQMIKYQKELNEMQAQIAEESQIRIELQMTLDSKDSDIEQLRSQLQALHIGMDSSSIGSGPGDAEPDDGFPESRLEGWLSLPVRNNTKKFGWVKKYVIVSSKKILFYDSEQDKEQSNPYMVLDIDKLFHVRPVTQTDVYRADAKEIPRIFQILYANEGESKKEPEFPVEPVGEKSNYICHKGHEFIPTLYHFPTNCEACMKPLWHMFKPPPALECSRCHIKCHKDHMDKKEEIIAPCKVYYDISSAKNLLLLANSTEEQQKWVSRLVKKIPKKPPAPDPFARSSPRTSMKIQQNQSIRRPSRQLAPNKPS

Chain of MAPK14 (human) (Q16539 whole entry, looked up): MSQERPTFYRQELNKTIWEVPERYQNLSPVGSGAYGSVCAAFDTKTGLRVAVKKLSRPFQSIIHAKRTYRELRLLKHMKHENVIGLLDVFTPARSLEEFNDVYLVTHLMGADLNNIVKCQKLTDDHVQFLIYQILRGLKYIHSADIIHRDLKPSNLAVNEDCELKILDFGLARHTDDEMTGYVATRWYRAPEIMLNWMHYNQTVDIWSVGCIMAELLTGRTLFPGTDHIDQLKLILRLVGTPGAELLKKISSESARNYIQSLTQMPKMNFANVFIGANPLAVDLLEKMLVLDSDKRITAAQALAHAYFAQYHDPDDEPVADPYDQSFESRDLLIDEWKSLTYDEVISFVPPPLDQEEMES

IC50 (CDK2 [1]) [nM]	Compound	other results
320	Cc1nc(C)c(-c2ccnc(Nc3cccc(S(=O)(=O)NCCO)c3)n2)s1	
	CCOC(=O)Cc1cccc(NS(=O)(=O)c2ccc(Nc3nccc(-c4sc(NC)nc4C)n3)cc2)c1	IC50 (CDK2 [2]): 3200 nM
6	CNc1nc(C)c(-c2ccnc(Nc3ccc(S(=O)(=O)NCCO)cc3)n2)s1	
260	COCCNS(=O)(=O)c1cccc(Nc2nccc(-c3sc(N)nc3C)n2)c1	IC50 (MAPK14 (human)): > 10000 nM
320	CCNc1nc(C)c(-c2ccnc(Nc3cccc(S(=O)(=O)NCC)c3)n2)s1	
	CCNc1nc(C)c(-c2ccnc(Nc3ccc(N4CCN(Cc5ccccc5)CC4)cc3)n2)s1	IC50 (CDK2 [2]): 3200 nM
	CCNc1nc(C)c(-c2ccnc(Nc3ccc(CNC(C)=O)cc3)n2)s1	IC50 (CDK2 [2]): 120 nM
320	CNc1nc(C)c(-c2ccnc(Nc3ccc(C)c(Br)c3)n2)s1	
12	Cc1nc(N)sc1-c1ccnc(Nc2ccc(S(=O)(=O)NCc3ccccc3)cc2)n1	
320	CNc1nc(C)c(-c2ccnc(Nc3cc(OC)cc(OC)c3)n2)s1	
251	CCNc1nc(C)c(-c2ccnc(Nc3ccc(N4CCNCC4)cc3)n2)s1	inhibition (MAPK14 (human)): 61%; IC50 (CDK2 [2]): 50 nM; inhibition (CDK2 [2]): 99%; inhibition (ROCK2 (rat)): 95%
3	CNc1nc(C)c(-c2ccnc(Nc3ccc(S(=O)(=O)NCCOC)cc3)n2)s1	
3200	Cc1nc(N(C)c2cccnc2)sc1-c1ccnc(Nc2ccc(N3CCOCC3)cc2)n1	
60	Cc1nc(N)sc1-c1ccnc(Nc2cccc(CNS(=O)(=O)C(F)(F)F)c2)n1	
	CCNc1nc(C)c(-c2ccnc(Nc3cccc(CC(=O)OCCOC)c3)n2)s1	IC50 (CDK2 [2]): 3200 nM
3200	CNc1nc(C)c(-c2ccnc(Nc3ccc(C)c(S(=O)(=O)N4CCOCC4)c3)n2)s1	IC50 (MAPK14 (human)): > 10000 nM
	Cc1ccc(Nc2nccc(-c3sc(N)nc3C)n2)cc1S(=O)(=O)N1CCOCC1	IC50 (MAPK14 (human)): > 10000 nM
320	Cc1nc(C)c(-c2ccnc(Nc3cccc(N4CCOCC4)c3)n2)s1	

IC50 (CDK2 [1]) [nM]	Compound	other results
120	Cc1nc(N)sc1-c1ccnc(Nc2cccc(S(=O)(=O)NCCO)c2)n1	
120	Cc1nc(NC(C)(C)C)sc1-c1ccnc(Nc2ccc(N3CCOCC3)cc2)n1	
3200	Cc1nc(N)sc1-c1ccnc(Nc2cccc(S(=O)(=O)N3CCOCC3)c2)n1	
320	Cc1nc(C)c(-c2ccnc(Nc3cccc(S(C)(=O)=O)c3)n2)s1	
	CNc1nc(C)c(-c2ccnc(Nc3ccc(S(N)(=O)=O)cc3)n2)s1	IC50 (MAPK14 (human)): > 10000 nM
1000	COCCOC(=O)COc1cccc(Nc2nccc(-c3sc(N)nc3C)n2)c1	
2510	COc1cc(Nc2nccc(-c3sc(CO)nc3C)n2)ccc1N1CCOCC1	
	CCNc1nc(C)c(-c2ccnc(Nc3ccc(S(=O)(=O)NCc4ccccc4)cc3)n2)s1	IC50 (CDK2 [2]): 3200 nM
2	CNc1nc(C)c(-c2ccnc(Nc3ccc(S(C)(=O)=O)cc3)n2)s1	
60	CCNS(=O)(=O)c1ccc(Nc2nccc(-c3sc(C)nc3C)n2)cc1	
60	CNc1nc(C)c(-c2ccnc(Nc3cccc(S(=O)(=O)NC)c3)n2)s1	
	CNc1nc(C)c(-c2ccnc(Nc3cccc(S(=O)(=O)NC(C)=O)c3)n2)s1	IC50 (CDK2 [2]): 3200 nM
	CCNc1nc(C)c(-c2ccnc(Nc3ccc(S(N)(=O)=O)cc3)n2)s1	IC50 (CDK2 [2]): 6 nM
320	CNc1nc(C)c(-c2ccnc(Nc3cccc(S(=O)(=O)NCCO)c3)n2)s1	
	Cc1nc(CS(=O)(=O)c2cccs2)sc1-c1ccnc(Nc2ccc(N3CCOCC3)cc2)n1	inhibition (MAPK14 (human)): 67%; inhibition (CDK2 [2]): 91%; inhibition (ROCK2 (rat)): 86%
	CCNc1nc(C)c(-c2ccnc(Nc3ccc(S(=O)(=O)NCCOC)cc3)n2)s1	IC50 (CDK2 [2]): 12 nM
120	CNc1nc(C)c(-c2ccnc(Nc3ccc(OC)c(C)c3)n2)s1	
	CNc1nc(C)c(-c2ccnc(Nc3cccc(S(C)(=O)=O)c3)n2)s1	IC50 (MAPK14 (human)): > 10000 nM; IC50 (CDK2 [2]): 6 nM
